Assay results reported in the supplement of paper PMC10307832.

What was measured:
Assay in all cases: relative viability (nuclei count vs DMSO), 5 days (fraction); higher = more cells survive
AZ3146 + OSI-027 = compound: CN1CCC(CC1)OC2=CC(=C(C=C2)NC3=NC=C4C(=N3)N(C(=O)N4C)C5CCCC5)OC [AZ3146] + COc1cccc2cc(-c3nc([C@H]4CC[C@H](C(=O)O)CC4)n4ncnc(N)c34)[nH]c12 [OSI-027] (partner 0.5 µM)
Method in brief: (§1)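 Five library-drug doses in √10 steps were combined with a fixed anchor-drug dose, or a single drug was given alone, by pin tool to lung cancer cell lines in 1536-well plates the day after seeding. Nuclei were stained and counted after 5 days. Relative viability is the nuclei count in treated wells over that in vehicle wells, taken as the median of duplicate plates.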

AZ3146 + Linsitinib = compound: CN1CCC(CC1)OC2=CC(=C(C=C2)NC3=NC=C4C(=N3)N(C(=O)N4C)C5CCCC5)OC [AZ3146] + C[C@]1(O)C[C@@H](c2nc(-c3ccc4ccc(-c5ccccc5)nc4c3)c3c(N)nccn32)C1 [Linsitinib] (partner 1 µM)
Method in brief: as §1

AZ3146 + Alpelisib = compound: CN1CCC(CC1)OC2=CC(=C(C=C2)NC3=NC=C4C(=N3)N(C(=O)N4C)C5CCCC5)OC [AZ3146] + Cc1nc(NC(=O)N2CCC[C@H]2C(N)=O)sc1-c1ccnc(C(C)(C)C(F)(F)F)c1 [Alpelisib] (partner 2 µM)
Method in brief: as §1

AZ3146 + Vorinostat = compound: CN1CCC(CC1)OC2=CC(=C(C=C2)NC3=NC=C4C(=N3)N(C(=O)N4C)C5CCCC5)OC [AZ3146] + O=C(CCCCCCC(=O)Nc1ccccc1)NO [Vorinostat] (partner 1 µM)
Method in brief: as §1

Row | Cell Line | relative viability (AZ3146 + OSI-027; first compound 0.08 µM) | relative viability (AZ3146 + OSI-027; first compound 0.253 µM) | relative viability (AZ3146 + OSI-027; first compound 0.8 µM) | relative viability (AZ3146 + OSI-027; first compound 2.53 µM) | relative viability (AZ3146 + OSI-027; first compound 8 µM) | relative viability (AZ3146 + Linsitinib; first compound 0.08 µM) | relative viability (AZ3146 + Linsitinib; first compound 0.253 µM) | relative viability (AZ3146 + Linsitinib; first compound 0.8 µM) | relative viability (AZ3146 + Linsitinib; first compound 2.53 µM) | relative viability (AZ3146 + Linsitinib; first compound 8 µM) | relative viability (AZ3146 + Alpelisib; first compound 0.08 µM) | relative viability (AZ3146 + Alpelisib; first compound 0.253 µM) | relative viability (AZ3146 + Alpelisib; first compound 0.8 µM) | relative viability (AZ3146 + Alpelisib; first compound 2.53 µM) | relative viability (AZ3146 + Alpelisib; first compound 8 µM) | relative viability (AZ3146 + Vorinostat; first compound 0.08 µM) | relative viability (AZ3146 + Vorinostat; first compound 0.253 µM) | relative viability (AZ3146 + Vorinostat; first compound 0.8 µM) | relative viability (AZ3146 + Vorinostat; first compound 2.53 µM) | relative viability (AZ3146 + Vorinostat; first compound 8 µM)
1 | NCI-H460 | 0.636 | 0.72 | 0.622 | 0.622 | 0.423 | 0.719 | 0.824 | 0.65 | 0.787 | 0.244 | 0.375 | 0.466 | 0.478 | 0.573 | 0.254 | 0.623 | 0.813 | 0.707 | 0.693 | 0.0632
2 | PC-3 [JPC-3] | 0.624 | 0.792 | 0.789 | 0.77 | 0.776 | 0.972 | 0.96 | 1.01 | 0.996 | 0.932 | 0.914 | 1.01 | 1.02 | 1.08 | 1.07 | 0.554 |  | 0.803 | 0.66 | 0.713
3 | HCC-15 | 0.689 | 0.667 | 0.481 | 0.773 | 0.578 | 0.815 | 0.946 | 0.874 | 0.879 | 0.879 | 0.939 | 0.899 | 0.864 | 0.822 | 0.893 | 0.779 | 0.796 | 0.885 | 0.887 | 0.687
4 | NCI-H2228 | 0.484 | 0.579 | 0.498 | 0.615 | 0.429 | 1 | 0.867 | 0.657 | 0.628 | 0.774 | 0.694 | 0.812 | 0.679 | 0.705 | 0.603 | 0.589 | 0.695 | 0.874 | 0.956 | 0.674
5 | NCI-H1975 | 0.677 | 0.747 | 0.785 | 0.71 | 0.416 | 0.988 | 0.986 | 1 | 0.978 | 0.352 | 0.658 | 0.627 | 0.671 | 0.616 | 0.301 | 0.67 | 0.736 | 0.735 | 0.697 | 0.327
6 | NCI-H727 | 0.674 | 0.56 | 0.595 | 0.671 | 0.413 | 0.319 | 0.188 | 0.35 | 0.269 | 0.26 | 0.506 | 0.457 | 0.48 | 0.612 | 0.333 | 1.01 | 1.22 | 1.03 | 1.17 | 1.11
7 | COR-L23 | 0.685 | 0.766 | 0.781 | 0.835 | 0.769 | 0.771 | 1.04 | 0.852 | 1.1 | 0.884 | 0.705 | 0.74 | 0.766 | 0.824 | 0.639 | 0.38 | 0.536 | 0.374 | 0.415 | 0.313
8 | LK-2 | 0.227 | 0.181 | 0.146 | 0.206 | 0.178 | 0.672 | 0.645 | 0.562 | 0.519 | 0.729 | 0.907 |  |  | 1.16 | 1.66 | 0.159 | 0.243 | 0.326 | 0.388 | 0.389
9 | 201T | 0.679 | 0.567 | 0.726 | 0.765 | 0.685 | 0.876 | 1.06 | 1.05 | 1.05 | 1.06 | 0.943 | 0.918 | 0.954 | 0.993 | 1 | 0.948 | 0.928 | 0.917 | 1.05 | 0.894
10 | HCC-827 | 0.84 | 0.763 | 0.807 | 0.786 | 0.726 | 0.907 | 0.889 | 0.946 | 1.02 | 1.01 | 1.02 | 0.976 | 1.08 | 0.921 | 0.968 | 0.774 | 0.916 | 0.641 | 0.844 | 0.892
11 | NCI-H650 | 0.504 | 0.461 | 0.359 | 0.588 | 0.506 | 0.539 | 0.805 | 0.8 | 1.26 | 0.779 | 0.813 | 1.08 | 0.915 | 1.14 | 1.25 | 0.237 | 0.374 | 0.265 | 0.447 | 0.4
12 | HARA | 0.31 | 0.41 | 0.436 | 0.582 | 0.506 | 0.821 | 0.95 | 1.01 | 0.993 | 0.935 | 0.629 | 0.785 | 0.883 | 0.909 | 0.725 | 0.495 | 0.561 | 0.559 | 0.67 | 0.423
13 | NCI-H661 | 0.74 | 0.72 | 0.768 | 0.764 | 0.576 | 0.61 | 0.6 | 0.603 | 0.584 | 0.616 | 0.729 | 0.549 | 0.565 | 0.689 | 1.03 | 0.701 | 0.846 | 0.786 | 0.813 | 0.505
14 | NCI-H2087 | 0.54 | 0.656 | 0.469 | 0.674 | 0.525 | 0.816 | 0.952 | 1.11 | 1.02 | 1 | 1.03 | 1.04 | 1.19 | 1.11 | 0.953 | 0.649 | 0.505 | 0.838 | 0.668 | 0.367
15 | NCI-H2405 | 0.652 | 0.62 | 0.582 | 0.696 | 0.641 | 0.973 |  | 1.04 | 0.937 | 0.747 | 0.891 |  | 0.789 | 0.829 | 0.76 | 0.799 | 0.969 | 1.04 | 1.14 | 0.927
16 | NCI-H1793 | 0.321 | 0.256 | 0.226 | 0.329 | 0.247 | 0.841 | 0.921 | 0.638 | 0.813 | 1.02 | 0.578 | 0.743 | 0.758 | 0.779 | 0.624 | 0.616 | 0.682 | 0.613 | 0.942 | 0.573
17 | NCI-H647 | 0.55 | 0.656 | 0.567 | 0.684 | 0.697 | 1.14 | 1.3 | 1.1 | 1.16 | 0.434 | 1.05 | 1.21 | 1.27 | 1.28 | 0.534 | 0.537 | 0.426 | 0.607 | 0.667 | 0.186
18 | NCI-H596 | 0.683 | 0.698 | 0.669 | 0.762 | 0.563 | 1.1 | 1.01 | 1.01 | 1.04 | 1.1 | 0.482 | 0.484 | 0.489 | 0.487 | 0.428 | 0.53 | 0.541 | 0.586 | 0.571 | 0.587
19 | EMC-BAC-2 | 0.343 | 0.371 | 0.418 | 0.379 | 0.375 | 0.81 | 0.756 | 0.836 | 0.791 | 0.82 | 0.718 | 0.718 | 0.768 | 0.743 | 0.84 |  |  | 0.519 | 0.534 | 0.368
20 | SK-MES-1 | 0.659 | 0.621 | 0.568 | 0.569 | 0.452 | 1.06 | 1.06 | 1.01 | 1.09 | 1.12 | 0.785 | 0.93 | 0.866 | 0.836 | 0.932 | 1.04 | 1.17 | 1.14 | 1.19 | 0.701
21 | H3255 | 0.654 | 0.483 | 0.594 | 0.612 | 0.638 | 0.9 | 0.987 | 0.961 | 0.998 | 0.902 | 0.749 | 0.649 | 0.664 | 0.754 | 0.656 | 0.737 | 0.746 | 0.856 | 0.887 | 0.897
22 | NCI-H1651 | 0.657 | 0.745 | 0.66 | 0.692 | 0.639 | 0.886 | 1.07 | 1.04 | 0.989 | 1 | 0.879 | 1.02 | 0.936 | 1.1 | 0.958 | 0.428 | 0.519 | 0.477 | 0.512 | 0.568
23 | NCI-H1395 | 0.569 | 0.533 | 0.564 | 0.701 | 0.633 | 0.986 | 1.1 | 1.28 | 1.37 | 1.05 | 1.08 | 1.18 | 0.998 | 0.994 | 1.26 | 0.66 | 0.504 |  | 0.84 | 0.615
24 | NCI-H23 | 0.621 | 0.699 | 0.403 | 0.746 | 0.616 | 0.584 | 0.563 | 0.616 | 0.656 | 0.605 | 0.591 | 0.668 | 0.676 | 0.744 | 0.738 | 0.473 | 0.593 | 0.572 | 0.769 | 0.377
25 | NCI-H1355 | 0.396 | 0.395 | 0.324 | 0.441 | 0.345 | 0.774 | 0.854 | 0.825 | 0.864 | 0.885 | 0.836 | 0.849 | 0.897 | 0.723 | 0.809 | 0.517 | 0.619 | 0.69 | 0.712 | 0.622
26 | NCI-H2085 | 0.614 | 0.648 | 0.649 | 0.852 | 0.475 | 0.898 | 0.848 | 0.956 | 0.912 | 0.727 | 0.993 | 0.947 | 0.94 | 0.99 | 0.808 | 0.75 | 0.786 | 0.779 | 0.789 | 0.701
27 | NCI-H322M | 0.51 | 0.581 | 0.509 | 0.601 | 0.48 | 0.937 | 0.884 | 0.868 | 0.991 | 0.842 | 0.759 | 0.83 | 0.699 | 0.807 | 0.785 | 0.798 | 0.839 | 0.916 | 0.904 | 0.849
